Reference: patent US20100003302A1, “VASCULAR RESTENOSIS PREVENTING AGENT AND IMPLANTABLE INTRAVASCULAR DEVICE COATED THEREWITH” (priority 2001, published 2010)
Blank lines part the entries; values can stand above or below the molecule they belong to.

Key:
[1] = system: right common iliac artery vascular injury model; assay: Neointimal formation in vascular injury model (right common iliac artery 3-times balloon injury); type: in vivo, rabbits; settings: local administration by balloon immersed in 80 mM N-chlorsuccinimide vs PBS control; 4 weeks after treatment
Experimental: There were used a group of animals consisted of 5 (five) […] male rabbits aged 2 months. Vascular injury models were prepared by introducing a Fogarty catheter, Model e-060-2F, made by Baxter corporation (that is an arterial embolectomy balloon catheter) into the right common iliac artery through the right femoral artery under pentobarbital anesthesia, and then abrading the right common iliac artery 3 times under conditions of the balloon being inflated (balloon pressure: 0.5-1.0 atm). After injuring the vascular endothelium, hydrophilic balloons made by Boston Scientific Corporation, of an N-chlorsuccinimide-treated group prepared by immersing the balloons in 80 mM N-chlorsuccinimide, and of a control group prepared by immersing the balloons in PBS, were respectively inflated in the right common iliac arteries to locally administer the drug to each injured area. After 4 weeks from the treatment, the arteries were surgically removed, fixed with 10w/v % neutral buffered formalin fixative and then sectioned to prepare arterial ring tissue sections. After preparing elastic fiber stained tissue samples by EVG (Elastic Van Gieson) staining, the samples were subjected to measurements of intimal area (I) and medial area (M) to determine their ratio (I/M) as the degree of intimal thickening. […]

[2] = system: vascular smooth muscles (HNB18E6E7 cell line); assay: Migration of vascular smooth muscle cells into fibrin gel containing N-chlorsuccinimide; type: cell-based, human; settings: 37° C., 24 hours
Experimental: The vascular smooth muscles were collected from human vital arteries and established HNB18E6E7 was used as cell lines. The vascular smooth muscles were incubated in 6-well plates to produce confluent cultures. The resultant supernatant fluids were washed three time with warmed phosphate buffer solution (PBS) and softly added with 3 mg/mL of fibrinogen and 0.8 mL of Waymouth culture solution including 10 w/v % human serum. Then, the supernatant fluids were respectively added with N-chlorsuccinimide to adjust the final concentration of N-chlorsuccinimide to 0.08 mM, 0.8 mM, 8 mM and 80 mM, and gelled by addition of thrombin. The resultant gelled supernatants were incubated at 37° C. for 24 hours, and the numbers of the smooth muscle cells migrated into the gel was counted with a phase contrast microscope. For each concentration, the experiments were carried out to make n=3. The ordinate denotes the frequencies of migration of vascular smooth muscles into the gel, while the abscissa denotes the concentration of N-chlorsuccinimide.

α2-macroglobulin = molecular target: T1, α2-macroglobulin (Homo sapiens, UniProt P01023); assay: Deactivation of α2-macroglobulin (trypsin / coloring matrix S2222 assay, absorption at 405 nm); type: biochemical
T1 sequence (P01023 24-1474): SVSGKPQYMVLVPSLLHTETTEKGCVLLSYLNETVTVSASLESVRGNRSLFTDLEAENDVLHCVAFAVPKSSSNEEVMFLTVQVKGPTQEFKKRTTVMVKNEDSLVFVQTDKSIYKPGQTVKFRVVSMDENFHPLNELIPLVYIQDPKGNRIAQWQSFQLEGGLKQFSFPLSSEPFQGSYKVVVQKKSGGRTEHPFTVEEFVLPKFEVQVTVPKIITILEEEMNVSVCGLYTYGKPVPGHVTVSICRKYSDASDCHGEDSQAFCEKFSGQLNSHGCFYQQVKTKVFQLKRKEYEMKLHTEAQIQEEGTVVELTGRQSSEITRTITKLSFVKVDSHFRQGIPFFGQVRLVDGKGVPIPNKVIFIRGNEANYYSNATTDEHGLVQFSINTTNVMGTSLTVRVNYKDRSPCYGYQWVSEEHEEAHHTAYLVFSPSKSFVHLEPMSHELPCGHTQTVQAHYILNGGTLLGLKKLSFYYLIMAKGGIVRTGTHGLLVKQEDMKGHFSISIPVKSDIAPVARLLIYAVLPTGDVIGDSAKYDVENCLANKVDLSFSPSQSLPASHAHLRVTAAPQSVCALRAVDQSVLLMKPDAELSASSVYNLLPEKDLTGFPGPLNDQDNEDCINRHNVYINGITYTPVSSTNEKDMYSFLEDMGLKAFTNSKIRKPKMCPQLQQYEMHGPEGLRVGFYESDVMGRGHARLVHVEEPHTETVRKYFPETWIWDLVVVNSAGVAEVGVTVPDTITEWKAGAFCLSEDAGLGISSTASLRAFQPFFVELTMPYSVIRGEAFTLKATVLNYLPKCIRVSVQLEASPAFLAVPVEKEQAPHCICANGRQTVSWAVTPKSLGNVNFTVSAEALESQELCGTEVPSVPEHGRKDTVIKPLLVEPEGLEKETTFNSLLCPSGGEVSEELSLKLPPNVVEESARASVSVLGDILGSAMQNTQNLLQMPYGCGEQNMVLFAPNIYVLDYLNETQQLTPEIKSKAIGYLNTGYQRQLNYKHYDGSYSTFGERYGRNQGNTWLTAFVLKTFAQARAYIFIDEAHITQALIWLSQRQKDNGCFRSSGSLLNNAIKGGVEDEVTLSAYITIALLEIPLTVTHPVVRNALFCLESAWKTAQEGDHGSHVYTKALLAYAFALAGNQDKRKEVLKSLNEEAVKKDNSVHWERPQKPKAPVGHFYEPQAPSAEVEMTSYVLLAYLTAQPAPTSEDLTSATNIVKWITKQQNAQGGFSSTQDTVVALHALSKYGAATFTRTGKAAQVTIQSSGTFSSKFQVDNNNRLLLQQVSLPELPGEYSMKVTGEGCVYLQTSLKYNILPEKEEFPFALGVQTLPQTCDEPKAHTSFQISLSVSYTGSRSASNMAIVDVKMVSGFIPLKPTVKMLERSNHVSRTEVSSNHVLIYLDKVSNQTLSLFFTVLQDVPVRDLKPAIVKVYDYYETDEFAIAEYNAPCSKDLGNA
Experimental: Utilizing the facts that trypsin is inhibited by α2-macroglobulin and that trypsin causes yellow coloring of a coloring matrix S2222 resulting from decomposition thereof, verification was carried out for effects of methylamine, ethylamine, polyethyleneimines with molecular weights of 600 and 10000, tobramycin, ammonia, lysozyme chloride and polylysine on deactivation of α2-macroglobulin. A concrete method will be given below.
Firstly, each of methylamine, ethylamine, polyethyleneimines with molecular weights of 600 and 10000, tobramycin, ammonia, lysozyme chloride and polylysine was diluted to 0.0001 w/v %, 0.001 w/v %, 0.01 w/v %, 0.1 w/v % and 1 w/v % to prepare a series of diluted solutions as sample solutions. 50 μL of each sample solution was added with 50 μL of 2.5×10^−4 w/v % α2-macroglobulin and left for 5 minutes at room temperature. Then, the sample solution was added with 50 μL of a 5 w/v % trypsin EDTA solution, left for 5 minutes at room temperature, and then added with 10 μL of the coloring matrix S2222. After leaving the resultant sample solution for 20 minutes at room temperature, the sample solution was added with 50 μL of 10 w/v % acetic acid solution to stop reactions, and then subjected to measurement of absorption of light with a wave length of 405 nm, using 50 mM tris(hydroxymethyl)aminomethane buffer solution of pH 8.0 as the blank. The dilution of all the samples and agents was carried out by a 50 mM tris(hydroxymethyl)aminomethane buffer solution of pH 8.0. Results are shown in FIG. 5, in which the ordinate denotes the deactivation rate of α2-macroglobulin, and the abscissa denotes the concentrations of respective compounds.

[3] = compound concentration 0.1 w/v %

Molecule: O=C1CCC(=O)N1Cl [N-chlorsuccinimide]
neointimal hyperplasia (degree of intimal thickening, I/M ratio) [1]: considerably inhibited
number of migrating vascular smooth muscles ([2]; 80 mM N-chlorsuccinimide in fibrin gel): vanished completely
frequency of migration of the vascular smooth muscles into the gel ([2]; N-chlorsuccinimide 0.08, 0.8, 8 and 80 mM in fibrin gel, n=3): decreases apparently with increasing concentration

Molecule: CN [methylamine]
deactivation rate of α2-macroglobulin (α2-macroglobulin; compound concentration 1 w/v %): about 100%

deactivation rate of α2-macroglobulin (α2-macroglobulin; [3]): 100%
Molecule: lysozyme chloride

Molecule: polylysine
deactivation rate of α2-macroglobulin (α2-macroglobulin; [3]): 100%
